Source: patent US20260242353A1, “HETEROARYL DERIVATIVES AS DDRs INHIBITORS” (CHIESI FARMACEUTICI S.P.A., priority 2022, published 2026)
Like-named read-outs stand apart in the source and are kept apart here.

Columns and labels:
DDR2 = molecular target: T1, DDR2 (Homo sapiens, UniProt Q16832); experiment: LanthaScreen Europium Kinase Binding assay, DDR2
T1 construct: purchased Life Technologies
T1 sequence (Q16832 22-855): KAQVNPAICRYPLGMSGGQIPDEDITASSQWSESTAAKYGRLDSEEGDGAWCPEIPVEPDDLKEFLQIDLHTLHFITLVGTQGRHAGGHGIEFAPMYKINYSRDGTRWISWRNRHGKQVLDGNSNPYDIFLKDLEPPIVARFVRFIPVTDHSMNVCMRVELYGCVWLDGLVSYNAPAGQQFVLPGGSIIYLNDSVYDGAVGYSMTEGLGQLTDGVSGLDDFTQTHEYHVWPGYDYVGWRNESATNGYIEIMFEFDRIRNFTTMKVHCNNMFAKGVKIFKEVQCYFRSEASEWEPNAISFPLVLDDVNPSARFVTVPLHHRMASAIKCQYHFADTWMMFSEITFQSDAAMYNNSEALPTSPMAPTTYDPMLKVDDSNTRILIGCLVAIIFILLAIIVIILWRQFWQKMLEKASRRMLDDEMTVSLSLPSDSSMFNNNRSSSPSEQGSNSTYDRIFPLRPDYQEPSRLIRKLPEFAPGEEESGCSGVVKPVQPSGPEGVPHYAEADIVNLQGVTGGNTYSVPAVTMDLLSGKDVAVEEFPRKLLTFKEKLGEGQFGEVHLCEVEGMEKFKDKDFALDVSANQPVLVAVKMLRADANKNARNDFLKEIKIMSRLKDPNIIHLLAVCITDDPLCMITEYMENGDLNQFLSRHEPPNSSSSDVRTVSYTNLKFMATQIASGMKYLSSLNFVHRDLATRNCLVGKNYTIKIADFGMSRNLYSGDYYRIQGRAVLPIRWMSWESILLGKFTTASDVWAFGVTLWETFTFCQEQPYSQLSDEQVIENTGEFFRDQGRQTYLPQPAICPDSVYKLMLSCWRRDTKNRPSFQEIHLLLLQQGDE
Procedure, shortened: (§1)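 Compounds were incubated 1 h at rt with 5 nM DDR1 plus 20 nM Kinase Tracer 178, or 5 nM DDR2 plus 10 nM tracer, and 2 nM Eu anti-GST antibody in HEPES pH 7.5 buffer. Read-out was the TR-FRET 665/615 nm ratio. IC50 came from a 4-parameter fit and was converted to Ki by Cheng-Prusoff.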

DDR1 = molecular target: T2, DDR1 (Homo sapiens, UniProt Q08345); experiment: LanthaScreen Europium Kinase Binding assay, DDR1
T2 construct: purchased Carna Biosciences
T2 sequence (Q08345 19-913): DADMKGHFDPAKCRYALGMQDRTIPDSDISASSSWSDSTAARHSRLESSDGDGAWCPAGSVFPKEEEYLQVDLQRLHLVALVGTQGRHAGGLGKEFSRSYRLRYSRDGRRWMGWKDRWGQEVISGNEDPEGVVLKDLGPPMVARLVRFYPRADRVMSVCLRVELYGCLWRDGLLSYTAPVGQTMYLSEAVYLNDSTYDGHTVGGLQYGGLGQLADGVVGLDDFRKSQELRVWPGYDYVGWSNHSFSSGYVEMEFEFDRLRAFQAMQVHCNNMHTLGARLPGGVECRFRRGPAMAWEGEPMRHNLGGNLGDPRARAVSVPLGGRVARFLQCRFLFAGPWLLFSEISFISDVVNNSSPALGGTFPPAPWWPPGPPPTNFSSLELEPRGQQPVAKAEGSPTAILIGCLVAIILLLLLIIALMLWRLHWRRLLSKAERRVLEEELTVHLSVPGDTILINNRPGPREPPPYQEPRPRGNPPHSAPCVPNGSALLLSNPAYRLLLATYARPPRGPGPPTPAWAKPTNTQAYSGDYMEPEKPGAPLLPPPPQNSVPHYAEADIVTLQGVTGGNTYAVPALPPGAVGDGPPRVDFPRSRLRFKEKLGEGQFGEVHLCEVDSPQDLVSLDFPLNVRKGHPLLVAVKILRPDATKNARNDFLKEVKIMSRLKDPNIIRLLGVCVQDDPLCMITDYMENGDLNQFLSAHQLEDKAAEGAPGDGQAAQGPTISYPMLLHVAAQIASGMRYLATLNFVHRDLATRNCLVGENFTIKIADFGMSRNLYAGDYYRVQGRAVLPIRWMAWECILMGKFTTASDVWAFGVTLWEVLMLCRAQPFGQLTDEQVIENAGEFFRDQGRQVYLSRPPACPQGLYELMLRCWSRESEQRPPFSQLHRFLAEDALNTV
Procedure, shortened: as §1

[1] = 5 nM DDR2, 10 nM Kinase Tracer 178, 1 h at rt, Ki from IC50 by Cheng-Prusoff, read-out: Ki DDR2
[2] = 5 nM DDR1, 20 nM Kinase Tracer 178, 1 h at rt, Ki from IC50 by Cheng-Prusoff, read-out: Ki DDR1
[3] = same binding assay, 5 nM DDR2, 10 nM Kinase Tracer 178, read-out: DDR2 Ki
[4] = same binding assay, 5 nM DDR1, 20 nM Kinase Tracer 178, read-out: DDR1 Ki

SMILES	Ki (DDR2; [1]) [nM]	Ki (DDR1; [2]) [nM]	Ki (DDR2; [3]) [nM]	Ki (DDR1; [4]) [nM]
Cc1ccc(C(=O)Nc2cncc(C(F)(F)F)c2)cc1[C@@H]1CCN(c2nccn3cncc23)C1 [Example 128, (S)-3-(1-(imidazo[1,5-a]pyrazin-8-yl)pyrrolidin-3-yl)-4-methyl-N-(5-(trifluoromethyl)pyridin-3-yl)benzamide]	5 to 25	< 5		
Cc1ccc(C(=O)Nc2cncc(C(F)(F)F)c2)cc1[C@@H]1CCN(c2ncnc3[nH]ncc23)C1 [Example 129, (S)-3-(1-(1H-pyrazolo[3,4-d]pyrimidin-4-yl)pyrrolidin-3-yl)-4-methyl-N-(5-(trifluoromethyl)pyridin-3-yl)benzamide]	< 5	< 5		
CC(=O)Nc1ncc(N2CC[C@@H](c3cc(C(=O)Nc4cncc(C(F)(F)F)c4)ccc3C)C2)cn1 [Example 130, (S)-3-(1-(2-acetamidopyrimidin-5-yl)pyrrolidin-3-yl)-4-methyl-N-(5-(trifluoromethyl)pyridin-3-yl)benzamide]	5 to 25	< 5		
Cc1ccc(C(=O)Nc2cc(C(C)(C)C)n(C)n2)cc1[C@@H]1CCN(c2ncnc3ccsc23)C1 [Example 131, (S)-N-(5-(tert-butyl)-1-methyl-1H-pyrazol-3-yl)-4-methyl-3-(1-(thieno[3,2-d]pyrimidin-4-yl)pyrrolidin-3-yl)benzamide]	< 5	< 5		
Cc1ccc(C(=O)Nc2cncc(C(F)(F)F)c2)cc1N1CC(Oc2cncc(C(N)=O)c2)C1 [Example 132, 5-((1-(2-methyl-5-((5-(trifluoromethyl)pyridin-3-yl)carbamoyl)phenyl)azetidin-3-yl)oxy)nicotinamide]	5 to 25	< 5		
CC(=O)Nc1cncc(OC2CN(c3cc(C(=O)Nc4cncc(C(F)(F)F)c4)ccc3C)C2)c1 [Example 133, 3-(3-((5-acetamidopyridin-3-yl)oxy)azetidin-1-yl)-4-methyl-N-(5-(trifluoromethyl)pyridin-3-yl)benzamide]	< 5	< 5		
Cc1ccc(C(=O)Nc2cncc(C(F)(F)F)c2)cc1[C@@H]1CCN(Cc2cnc3ccccn23)C1 [Example C1, (S)-3-(1-(imidazo[1,2-a]pyridin-3-ylmethyl)pyrrolidin-3-yl)-4-methyl-N-(5 (trifluoromethyl)pyridin-3-yl)benzamide]			588	148
Cc1ccc(C(=O)Nc2cncc(C(F)(F)F)c2)cc1[C@@H]1CCN(CC(N)=O)C1 [Example C2, (S)-3-(1-(2-amino-2-oxoethyl)pyrrolidin-3-yl)-4-methyl-N-(5-(trifluoromethyl)pyridin-3-yl)benzamide]			588	487
